How the values were obtained:
[1] = test system: SALL4; assay: SALL4 knock-down in HCC cells (qPCR, Western blot); assay type: cell-based, human
Description: Lentiviruses expressing scrambled shRNA or E5 SALL4-specific shRNA were packaged by treansfection of 293T cells with lentiviral vector pLL3.7. 24 hours and 48 hours post-transfection, viruses were harvested and filtered through […]. Virus titers were determined by FACS analysis of GFP expression using infected 3T3 cells by the conventional ways. MOI 0.5 to 5 was used dependent on individual cell lines. Transduction of HCC cells were carried out using spinoculation protocol, virus was added to the trypsinized cells and let settle for an hour at 37° C. in a humidified atmostphere of 5% CO2, centrifuged at 2,200 RPM at 37° C. for 90 mins and incubated overnight at 37° C. in a humidified atmostphere of 5% CO2. Transduction efficiency was determined by GFP expression by FACS analysis.
After successfully establishing the expression pattern of SALL4 in human livers at various stages and the clinical significance of SALL4 in HCC, the functional roles of SALL4 in HCC was investigated. […] The efficiency of virus transduction was assessed by FACS analysis of GFP expression. […]
Next, the potential of SALL4 as a molecular target for therapeutic intervention in HCC was examined by performing loss-of-function studies. […] The efficiency of virus transduction was assessed by the percentage of cells expressing GFP by flow cytometry. […]

[2] = test system: primary human AML cells; assay: Xenotransplantation of shRNA-transduced primary human AML cells into NSG mice; assay type: in vivo
From the text: The phenotype of wt peptide treatment was then compared with that of downregulation of SALL4 in primary AML cells. SALL4-specific shRNA (7210 and 7412, FIG. 6A) validated by previous studies were used for these experiments. FACS analysis with Annexin V/PI staining confirmed that there was a 2-fold increase in cell apoptosis and cell death in vitro in primary AML cells when SALL4 expression was reduced (FIG. 6B). In addition, there was an increased survival of leukemic recipient mice in vivo upon knocking down of SALL4 expression in these primary AML samples (FIG. 6C). 1.5×10^6 SALL4 shRNA or control retrovirus-treated primary human AML cells were transplanted into sublethally irradiated (1.0 Gy) NOD/SCID/IL2rγ-null mice by tail vein injection. Fatal AML with onset ranging from one to three months developed in all control recipient (7 out of 7) and some SALL4 shRNA recipient (2 out of 6) mice after transplantation. The transplanted leukemia disease was characterized by immature blasts with human CD45 expression in peripheral blood, bone marrow, and tissues such as liver and spleen (FIGS. 6C-6F). […] While the median survival of control recipient mice (N=7) was 33 days, the median survival of SALL4 shRNA recipient mice (N=6) was 109 days. Both the Log rank (also called Mantel-Cox, P=0.03 (FIG. 4H) and Gehan-Breslow-Wilcoxon (P=0.01)) tests were used for survival analysis and were statistically significant.
NSG (NOD.Cg-Prkdcscid Il2rgtm 1Wjl/SzJ, The Jackson Laboratory, ME, USA) mice were bred and maintained in the Children's Hospital Boston animal facility. All animal work has been approved by and done according to the guidelines of the IACUC under protocol 10-10-1832. Human primary AML cells exposed to various peptides or carrier only (1.0×10^6 cells per mouse) or transduced with SALL4-shRNA or control lentivirus (1.5×10^6 cell per mouse) were transplanted into 10- to 12-week old mice received 135 cGy sublethal irradiation 2-4 h before the injection via the dorsal tail vein. Mice were euthanized when they became ill or at 78 days post-transplantation. BM was removed from the two femurs by flushing with RPMI1640 medium, spleen cells were abstained by mincing and filtering through a cell strainer and peripheral blood was collected from the heart. […] The percentage of human CD45+ cells was calculated as follows: % human CD45+ cells=No. human CD45+ cells/(No. human CD45+ cells+No. mouse CD45+ cells)×100. […]
SALL4 is critical for leukemic cell survival in the AML cell line NB4 (Yang, et al., Blood, 112:805-813 (2008)). […] 48 hours after transduction, the viability of cells was determined by flow cytometry after staining with Annexin V and propidium iodide (PI). […]

Row | Sequence | SALL4 isoforms mRNA level after knockdown ([1]; SNU-398, four days post-transduction) | SALL4 protein level after knockdown ([1]; Western blot) | recipient mice without leukemia / still healthy ([2]; four months after transplantation) | recipient mice that developed fatal AML / leukemia ([2]; mouse, in vivo) | human CD45 positive cells in non-leukemic recipients ([2]; peripheral blood, bone marrow or spleen) | median survival of recipient mice ([2]; transduced primary human AML cells, tail vein)
1 | CTATTTAGCCAAAGGCAAA (short hairpin RNA, chemistry and delivery not given here, further chemistry not given here) [E5 shRNA] | 70% | almost all SALL4 proteins were gone | – | – | – | –
2 | GATGCCTTGAAACAAGCCAAGCTACCTCA (chemistry not given here) [compound 7412, SALL4 shRNA used in primary AML cells] | – | – | four out of six | 2 out of 6 | less than 0.5% | 109 days

From patent publication US9365851B2, “Spalt-like transcription factor 4 (SALL4) and uses thereof” (National University of Singapore, priority 2011, dated 2016)
